Laboratory results published in publication PMC12299813, “Combined Metabolomics and Network Pharmacology to Reveal Anti-Diabetic Mechanisms and Potential Pharmacological Components of Synsepalum dulcificum” (Plants, 2025).

Biological target: α-glucosidase
Assay: α-glucosidase inhibition assay (PNPG method)
Format: biochemical, yeast
Conditions: acarbose positive control, three repetitions, read-out: IC50 ± SD of α-glucosidase inhibition, S. dulcificum components
Excerpt: Ultrapure water was obtained using the UP series ultrapure water system (Chengdu, China). […] HPLC-grade formic acid was purchased from Shanghai Aladdin Biochemical Technology Co., Ltd. (Shanghai, China). HPLC-grade methanol and acetonitrile were purchased from Merck (Darmstadt, Germany). Di-methyl sulfoxide (DMSO) was purchased from Tianjin Dama Chemical Reagent Factory (Tianjin, China). Disodium hydrogen phosphate was purchased from Guangdong Guanghua Technology Co., Ltd. (Shantou, China). Other analytical-grade chemicals and reagents, such as sodium chloride and anhydrous ethanol, were obtained from Sichuan Xilong Scientific Co., Ltd. (Chengdu, China).
Soak the crushed stems, leaves, and fruits of S. dulcificum in methanol for 24 h, then extract the chemical components using ethyl acetate. After that, concentrate the extract using a rotary vacuum evaporator, repeating the extraction three times to obtain the crude extracts, which are then prepared at concentrations of 0.5, 1, 8, and 16 mg/mL, respectively, for subsequent inhibition experiments.
The assay was conducted following a previously described method, and made some minor adjustments. Briefly, 0.1 M phosphate-buffered saline (PBS, pH 6.9) was used to prepare standard sample solutions of different concentrations, α-glucosidase (1 U/mL), and p-nitrophenyl-α-D-glucopyranoside (α-PNPG, 5 mM). A mixture of the sample (50 μL) and α-glucosidase (50 μL) was incubated at 37 °C for 10 min, followed by the addition of 50 μL of PNPG and further incubation at 37 °C for 20 min. Finally, 100 μL of Na2CO3 (0.1 M) was added to terminate the reaction after incubating at 37 °C for 10 min. […] The experiment was set up with three repetitions, and the IC50 values were determined.

IC50 [mM]	Structure (SMILES)
0.07 ± 0.02	C=C(C)[C@@H]1CC[C@]2(C(=O)O)CC[C@]3(C)[C@H](CC[C@@H]4[C@@]5(C)CC[C@H](O)C(C)(C)[C@@H]5CC[C@]43C)[C@@H]12 [Betulinic acid]
2.12 ± 0.44	C[C@H]1[C@H](C)CC[C@]2(C(=O)O)CC[C@]3(C)C(=CC[C@@H]4[C@@]5(C)C[C@@H](O)[C@H](O)C(C)(C)[C@@H]5CC[C@]43C)[C@H]12 [Corosolic acid]
4.18 ± 1.09	COC(=O)c1cc(O)c(O)c(O)c1 [Methyl gallate]
55.1 ± 1.8	CC(C)=CCC/C(C)=C/CC/C(C)=C/CC/C=C(\C)CC/C=C(\C)CCC=C(C)C [Squalene]

Structure (SMILES)	IC50 [mM]
CC[C@H](/C=C/[C@@H](C)[C@H]1CC[C@H]2[C@@H]3CC=C4C[C@@H](O)CC[C@]4(C)[C@H]3CC[C@]12C)C(C)C [Stigmasterol]	2.11 ± 0.24
COc1cc(/C=C/CO)cc(OC)c1O[C@@H]1O[C@H](CO)[C@@H](O)[C@H](O)[C@H]1O [Syringin]	5.4 ± 1.2

Test system: not given
Assay: not given
Parameters: method as in doi:10.1016/j.jtice.2010.05.008
Conditions: isolated from the stem of SD; cited from earlier work

Structure (SMILES)	DPPH radical scavenging activity compared to positive control vitamin C
COc1cc([C@H]2OC[C@H]3[C@@H]2CO[C@H]3c2cc(OC)c(O)c(OC)c2)cc(OC)c1O [(+)-epi-syringaresinol]	superior
COc1cc([C@H]2OC[C@H]3[C@@H]2CO[C@@H]3c2cc(OC)c(O)c(OC)c2)cc(OC)c1O [(+)-syringaresinol]	superior

Test system: type 2 diabetic albino rats
Assay: not given
Parameters: method as in PMID 28917550
Conditions: cited from earlier work

Structure (SMILES)	blood glucose levels
COc1ccc(Cl)cc1C(=O)NCCc1ccc(S(=O)(=O)NC(=O)NC2CCCCC2)cc1 [glibenclamide]	significantly lowered
